From PubChem BioAssay (NCI)
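Cultured in 96-well plates, cells were exposed to test compound for 48 hours across five concentrations. GI50 = concentration required for 50% inhibition of growth. Definition used: TGI = concentration required for complete inhibition of growth.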

Columns and labels:
Assay in all cases: NCI-60 cell line screen, 48 h
[1] = test system: BT-549 breast
[2] = test system: NCI-H460 lung
[3] = test system: NCI-H226 lung
[4] = test system: MALME-3M melanoma
[5] = test system: TK-10 renal
[6] = test system: SK-MEL-5 melanoma
[7] = test system: MOLT-4 leukemia
[8] = test system: SNB-19 CNS
[9] = test system: PC-3 prostate
[10] = test system: HT29 colon
[11] = test system: 786-0 renal
[12] = test system: MCF7 breast
[13] = test system: OVCAR-4 ovarian
[14] = test system: RXF 393 renal
[15] = test system: SF-268 CNS
[16] = test system: OVCAR-5 ovarian
[17] = test system: M14 melanoma
[18] = test system: DU-145 prostate
[19] = test system: ACHN renal
[20] = test system: MDA-MB-435
[21] = test system: U251 CNS
[22] = test system: K-562 leukemia
[23] = test system: HL-60(TB) leukemia
[24] = test system: SF-295 CNS
[25] = test system: HCT-15 colon
[26] = test system: HOP-92 NSCLC
[27] = test system: UO-31 renal
[28] = test system: COLO 205 colon
[29] = test system: SK-OV-3 ovarian
[30] = test system: RPMI-8226 leukemia
[31] = test system: MDA-N
[32] = test system: OVCAR-3 ovarian
[33] = test system: SNB-75 CNS
[34] = test system: NCI-H23 lung
[35] = test system: HCT-116 colon
[36] = test system: SK-MEL-28 melanoma
[37] = test system: UACC-62 melanoma
[38] = test system: HOP-62 NSCLC
[39] = test system: IGROV1 ovarian
[40] = test system: HCC-2998 colon
[41] = test system: KM12 colon
[42] = test system: NCI/ADR-RES ovarian
[43] = test system: SR leukemia
[44] = test system: MDA-MB-231 breast
[45] = test system: LOX IMVI melanoma
[46] = test system: T-47D breast
[47] = test system: SN12C renal
[48] = test system: OVCAR-8 ovarian
[49] = test system: A498 renal
[50] = test system: CCRF-CEM leukemia
[51] = test system: SW-620 colon
[52] = test system: SF-539 CNS
[53] = test system: A549 NSCLC
[54] = test system: HS 578T breast
[55] = test system: CAKI-1 renal
[56] = test system: SK-MEL-2 melanoma
[57] = test system: UACC-257 melanoma
[58] = test system: EKVX NSCLC
[59] = test system: NCI-H522 lung

Work on `C#CCn1c(=O)ccn(/C(=C\C(=O)OCC)C(=O)OCC)c1=O` yielded a TGI [1] of 25.4 µM, a TGI [2] of 7.76 µM and a TGI [3] of 40.4 µM. For the same compound, the TGI [4] was 4.99 µM, the TGI [5] was 3.45 µM and the TGI [6] was 46.1 µM. For the same compound, the TGI [7] was over 27.7 µM, the TGI [8] was 36.4 µM and the TGI [9] was 29.4 µM. It also gave a TGI [10] of 4.4 µM, a TGI [11] of 6.05 µM and a TGI [12] of 9.78 µM. The TGI [13] was 7.3 µM, the TGI [14] was 4.84 µM and the TGI [15] was 42.4 µM. It also gave a TGI [16] of 30.9 µM, a TGI [17] of 10.3 µM and a TGI [18] of 31.1 µM. It also gave a TGI [19] of 3.08 µM, a TGI [20] of 22.9 µM and a TGI [21] of 39.8 µM. The TGI [22] was over 100 µM, the TGI [23] was over 100 µM and the TGI [24] was 43.3 µM. It also gave a TGI [25] of 6.63 µM, a TGI [26] of 4.5 µM and a TGI [27] of 26.4 µM. It also gave a GI50 [28] of 1.53 µM, a TGI [28] of 3.17 µM and a TGI [29] of over 59.9 µM. The TGI [30] was over 23.9 µM, the TGI [31] was 35.1 µM and the TGI [32] was 16.3 µM. The TGI [33] was 39.9 µM, the TGI [34] was 31.8 µM and the TGI [35] was 16.5 µM. The TGI [36] was 25.7 µM, the TGI [37] was 28.3 µM and the TGI [38] was over 54.4 µM. The TGI [39] was 29.8 µM, the TGI [40] was 35.9 µM and the TGI [41] was 48.8 µM. It also gave a TGI [42] of 33.3 µM, a TGI [43] of over 43.5 µM and a TGI [44] of 41.9 µM. For the same compound, the TGI [45] was over 50.5 µM, the TGI [46] was 12.7 µM and the TGI [47] was over 58 µM. It also gave a TGI [48] of 5.42 µM, a TGI [49] of 36 µM and a TGI [50] of over 20.9 µM. It also gave a TGI [51] of 5.37 µM, a TGI [52] of 4.64 µM and a TGI [53] of 43.8 µM. It also gave a TGI [54] of 63.5 µM, a TGI [55] of 2.4 µM and a TGI [56] of 32.5 µM. The TGI [57] was 29.5 µM and the TGI [58] was 27.9 µM.
`CC1=C(C(=O)N[C@@H](Cc2ccccc2)C(=O)O)N2C(=O)[C@@H](NC(=O)[C@@H](N)CC(C)C)[C@H]2SC1` showed a TGI [1] of over 100 µM, a TGI [2] of over 100 µM and a TGI [3] of over 100 µM. The TGI [4] was over 100 µM, the TGI [5] was over 100 µM and the TGI [6] was over 100 µM. The TGI [7] was over 100 µM, the TGI [8] was over 100 µM and the TGI [9] was over 100 µM. It also gave a TGI [11] of over 100 µM, a TGI [12] of over 100 µM and a TGI [13] of over 100 µM. For the same compound, the TGI [14] was over 100 µM, the TGI [15] was over 100 µM and the TGI [16] was over 100 µM. It also gave a TGI [17] of over 100 µM, a TGI [18] of over 100 µM and a TGI [19] of over 100 µM. It also gave a TGI [20] of over 100 µM, a TGI [21] of over 100 µM and a TGI [22] of over 100 µM. It also gave a TGI [23] of over 100 µM, a TGI [24] of over 100 µM and a TGI [25] of over 100 µM. The TGI [26] was over 100 µM, the TGI [28] was over 100 µM and the TGI [30] was over 100 µM. It also gave a TGI [31] of over 100 µM, a TGI [32] of over 100 µM and a TGI [33] of over 100 µM. It also gave a TGI [36] of over 100 µM, a TGI [37] of over 100 µM and a TGI [39] of over 100 µM. The TGI [40] was over 100 µM, the TGI [41] was over 100 µM and the TGI [42] was over 100 µM. The TGI [43] was over 100 µM, the TGI [44] was over 100 µM and the TGI [45] was over 100 µM. The TGI [46] was over 100 µM, the TGI [47] was over 100 µM and the TGI [48] was over 100 µM. It also gave a TGI [49] of over 100 µM, a TGI [50] of over 100 µM and a TGI [51] of over 100 µM. For the same compound, the TGI [52] was over 100 µM, the TGI [53] was over 100 µM and the TGI [54] was over 100 µM. The TGI [55] was over 100 µM, the TGI [56] was over 100 µM and the TGI [59] was over 100 µM. The TGI [57] was over 100 µM and the TGI [58] was over 100 µM.
For `COC(=O)c1ccccc1/C=C1/Cc2cccc(C)c2C1=O`, the TGI [1] was over 100 µM, the TGI [2] was over 100 µM and the TGI [3] was over 100 µM. It also gave a TGI [4] of over 100 µM, a TGI [5] of over 100 µM and a TGI [6] of over 100 µM. For the same compound, the TGI [7] was over 100 µM, the TGI [9] was over 100 µM and the TGI [10] was over 100 µM. For the same compound, the TGI [11] was over 100 µM, the TGI [12] was over 100 µM and the TGI [13] was over 100 µM. The TGI [14] was over 100 µM, the TGI [15] was over 100 µM and the TGI [16] was over 100 µM. It also gave a TGI [18] of over 100 µM, a TGI [19] of over 100 µM and a TGI [20] of over 100 µM. For the same compound, the TGI [21] was over 100 µM, the TGI [22] was over 100 µM and the TGI [23] was over 100 µM. The TGI [24] was over 100 µM, the TGI [25] was over 100 µM and the TGI [26] was over 100 µM. It also gave a TGI [27] of over 100 µM, a TGI [28] of over 100 µM and a TGI [29] of over 100 µM. For the same compound, the TGI [30] was over 100 µM, the TGI [31] was over 100 µM and the TGI [32] was over 100 µM. For the same compound, the TGI [33] was over 100 µM, the TGI [34] was over 100 µM and the TGI [35] was over 100 µM. It also gave a TGI [36] of over 100 µM, a TGI [37] of over 100 µM and a TGI [38] of over 100 µM. For the same compound, the TGI [39] was over 100 µM, the TGI [40] was over 100 µM and the TGI [41] was over 100 µM. The TGI [42] was over 100 µM, the TGI [43] was over 100 µM and the TGI [44] was over 100 µM. It also gave a TGI [45] of over 100 µM, a TGI [46] of over 100 µM and a TGI [47] of over 100 µM. It also gave a TGI [48] of over 100 µM, a TGI [49] of over 100 µM and a TGI [50] of over 100 µM. It also gave a TGI [51] of over 100 µM, a TGI [52] of over 100 µM and a TGI [53] of over 100 µM. For the same compound, the TGI [54] was over 100 µM, the TGI [55] was over 100 µM and the TGI [59] was over 100 µM. It also gave a TGI [57] of over 100 µM and a TGI [58] of over 100 µM.
`CO[C@H]1[C@@H](O)[C@@H](C)O[C@@H](O[C@H]2CC[C@@]3(C)[C@H](CC[C@@H]4[C@@H]3CC[C@]3(C)[C@@H](C5=CC(=O)OC5)CC[C@]43O)C2)[C@@H]1O` gave a TGI [1] of 0.0236 µM, a TGI [2] of 0.00625 µM and a TGI [3] of 0.135 µM. It also gave a TGI [4] of 0.00902 µM, a TGI [5] of 0.0201 µM and a TGI [6] of 0.0342 µM. The TGI [7] was 0.436 µM, the TGI [8] was 0.211 µM and the TGI [9] was 0.0171 µM. It also gave a TGI [10] of 0.0504 µM, a TGI [11] of 0.01 µM and a TGI [12] of 1.1 µM. It also gave a TGI [13] of 0.0322 µM, a TGI [14] of 0.00617 µM and a TGI [15] of 0.0366 µM. The TGI [16] was 0.0932 µM, the TGI [17] was 0.0479 µM and the TGI [18] was 0.00729 µM. For the same compound, the TGI [19] was 0.0102 µM, the TGI [20] was 0.0693 µM and the TGI [21] was 0.0415 µM. The GI50 [22] was 0.00633 µM, the TGI [22] was 0.371 µM and the TGI [23] was 0.0119 µM. It also gave a TGI [24] of 0.157 µM, a TGI [25] of 0.0419 µM and a TGI [26] of 0.0685 µM. It also gave a TGI [27] of 0.0108 µM, a TGI [28] of 0.221 µM and a TGI [29] of 0.0491 µM. For the same compound, the GI50 [30] was 0.00781 µM, the TGI [30] was 25 µM and the TGI [31] was 0.0504 µM. The TGI [32] was 0.013 µM, the TGI [33] was 0.0271 µM and the GI50 [34] was under 0.0025 µM. The TGI [34] was 0.00675 µM, the TGI [35] was 0.0275 µM and the TGI [36] was 1.01 µM. For the same compound, the TGI [37] was 0.0228 µM, the TGI [38] was 0.00943 µM and the TGI [39] was 0.0848 µM. The TGI [40] was 0.173 µM, the TGI [41] was 0.191 µM and the TGI [42] was 0.0276 µM. The TGI [43] was 0.483 µM, the TGI [44] was 0.269 µM and the TGI [45] was 0.0455 µM. The TGI [46] was 0.222 µM, the TGI [48] was 0.0444 µM and the TGI [49] was 0.813 µM. It also gave a TGI [50] of 0.37 µM, a TGI [51] of 2.51 µM and a TGI [52] of 0.0247 µM. It also gave a TGI [53] of 0.00487 µM, a TGI [54] of 0.031 µM and a TGI [55] of 0.0128 µM. It also gave a TGI [56] of 0.0538 µM, a TGI [59] of 0.0194 µM and a TGI [57] of 0.0446 µM. The TGI [58] was 0.0106 µM.
